From ChEMBL document CHEMBL4699598, “Discovery of Novel Substituted N-(4-Amino-2-chlorophenyl)-5-chloro-2-hydroxybenzamide Analogues as Potent Human Adenovirus Inhibitors” (J Med Chem, 2020)
pIC50: −log10 of the molar value.

Experiments:
Human adenovirus 5 [1] = assay: Antiviral activity against GFP-fused Human adenovirus 5 infected in 293beta5 cells assessed as inhibition of plaque formation incubated for 7 days by GFP reporter gene assay; assay type: functional, organism-based; details: Human mastadenovirus C, HEK293, 168 h
[2] = Cytotoxicity against human A549 cells assessed as reduction in cell viability incubated for 48 hrs by alamarBlue assay; assay type: cell-based
[3] = Selectivity index, ratio of CC50 for cytotoxicity against human A549 cells assessed as reduction in cell viability incubated for 48 hrs by alamarBlue assay to IC50 for antiviral activity against Human adenovirus 5 infected in 293beta5 cells assessed as inhibition of plaque formation incubated for 7 days by GFP reporter gene assay; assay type: toxicity, cell-based; details: read-out: Ratio CC50/IC50
Human adenovirus 5 [4] = assay: Antiviral activity against Human adenovirus 5 infected in 293beta5 cells assessed as inhibition of plaque formation at 10 uM incubated for 7 days by GFP reporter gene assay relative to control; assay type: functional; details: Human mastadenovirus C, HEK293, 168 h, time 7 day
[5] = Toxicity against cyclophosphamide-immunosuppressed golden syrian hamster assessed as loss of body weight at 1 mg/kg, administered for 14 days; assay type: organism-based, Mesocricetus auratus; details: in vivo, 336 h, time 14 day
Human adenovirus 5 [6] = assay: Antiviral activity against Human adenovirus 5 infected in 293beta5 cells assessed as inhibition of virus infection at 10 fold IC50 measured after 60 mins by GFP reporter gene assay relative to control; assay type: functional, HEK293; details: 1 h
Human betaherpesvirus 5 = assay: Antiviral activity against human cytomegalovirus infected in HFF cells assessed as inhibition of viral replication by measuring number of DNA copies at 5 uM incubated for 72 hrs by RT-PCR analysis (reference value: 100 +/- 25.56 %); assay type: functional; set-up: scale not given: the % may be the effect or the level left
Human adenovirus 5 [7] = assay: Antiviral activity against WT-Human adenovirus 5 infected in A549 cells assessed as fold reduction in virus yield at 10 fold of IC50 after 48 hrs endpoint dilution method; assay type: functional
Human adenovirus 5 [8] = assay: Antiviral activity against wild-type Human adenovirus 5 infected in human A549 cells assessed as inhibition of viral entry by measuring nuclear associated viral genome level at 10 fold IC50 incubated for 45 mins by RT-PCR analysis (reference value: 100 +/- 1.07 %); assay type: functional; set-up: scale not given: the % may be the effect or the level left; details: 0.75 h
Human adenovirus 5 [9] = assay: Antiviral activity against wild-type Human adenovirus 5 infected in human A549 cells assessed as inhibition of viral DNA replication by measuring number of viral DNA copies at 5 uM after 24 hrs by RT-qPCR analysis (reference value: 100 +/- 0.16 %); assay type: functional; set-up: scale not given: the % may be the effect or the level left

| SMILES | pIC50 (Human adenovirus 5 [1]) | CC50 at 48 h [2] [µM] | selectivity ratio at 48 h [3] | inhibition at 10 µM (Human adenovirus 5 [4]) [%] | other results |
| --- | --- | --- | --- | --- | --- |
| CN(C)c1ccc(NC(=O)c2cc(Cl)ccc2O)c(Cl)c1 | 5.72 | 85.1 | 44.3 | 100 | – |
| Nc1ccc(NC(=O)c2cc(Cl)ccc2O)c(Cl)c1 | – | – | – | 0 | – |
| CCCCCCCCC(C)Nc1ccc(NC(=O)c2cc(Cl)ccc2O)c(Cl)c1 (stereo not drawn) | 5.92 | 21.9 | 18.1 | 100 | – |
| O=C(Nc1ccc(NCc2cc(Cl)cc(C(F)(F)F)c2)cc1Cl)c1cc(Cl)ccc1O | 5.75 | 30.9 | 17.3 | – | – |
| O=C(Nc1cc(NC2CCCC2)ccc1F)c1cc(Cl)ccc1O | 5.87 | 44 | 32.8 | – | – |
| O=C(Nc1ccc(NCc2ccc(Br)s2)cc1Cl)c1cc(Cl)ccc1O | 5.59 | 20.7 | 8 | 100 | – |
| O=C(NCc1ccc(NC2CCCC2)cc1Cl)c1cc(Cl)ccc1O | 5.10 | 28.3 | 3.6 | – | – |
| O=C(Nc1ccc(NCC2CC2)cc1Cl)c1cc(Cl)ccc1O | 5.86 | 14.4 | 10.4 | 100 | – |
| CC(C)(C)OC(=O)N1CCC(Nc2ccc(NC(=O)c3cc(Cl)ccc3O)c(Cl)c2)CC1 | 5.92 | 100 | 82.6 | – | – |
| CS(=O)(=O)Nc1ccc(Cl)cc1C(=O)Nc1ccc(NC2CCCC2)cc1Cl | 5.76 | 35.4 | 20.6 | – | – |
| O=C(Nc1ccc(NCc2cnccc2Cl)cc1Cl)c1cc(Cl)ccc1O | 5.78 | 126 | 75.7 | 100 | – |
| O=C(Nc1ccc(NCc2cccc(Br)n2)cc1Cl)c1cc(Cl)ccc1O | 5.65 | 92.3 | 40.8 | 100 | – |
| O=C(Nc1ccc(NCCCO)cc1Cl)c1cc(Cl)ccc1O | – | 106 | – | – | – |
| CN1CCC(CNc2ccc(NC(=O)c3cc(Cl)ccc3O)c(Cl)c2)CC1 | – | – | – | 0 | – |
| CCCNc1ccc(NC(=O)c2cc(Cl)ccc2O)c(Cl)c1 | 5.30 | 22.5 | 4.5 | 100 | – |
| O=C(Nc1ccc(NC2CCCC2)cc1)c1cc(Cl)ccc1O | 5.59 | 10 | 3.9 | – | – |
| CCCCCCC(C)Nc1ccc(NC(=O)c2cc(Cl)ccc2O)c(Cl)c1 (stereo not drawn) | 6.49 | 23.5 | 73.4 | 100 | – |
| O=C(Nc1ccc(NCc2cc(F)cc(C(F)(F)F)c2)cc1Cl)c1cc(Cl)ccc1O | 5.94 | 30.9 | 26.7 | 100 | – |
| CCNc1ccc(NC(=O)c2cc(Cl)ccc2O)c(Cl)c1 | 5.66 | 30.2 | 13.9 | 100 | – |
| O=C(Nc1ccc(NCc2cccnc2Cl)cc1Cl)c1cc(Cl)ccc1O | 5.32 | 100 | 21 | 100 | – |
| O=C(Nc1ccc(NCC2CCCC2)cc1Cl)c1cc(Cl)ccc1O | 5.91 | 21.5 | 17.3 | 100 | – |
| CN(C)c1ccc(CNc2ccc(NC(=O)c3cc(Cl)ccc3O)c(Cl)c2)cc1 | 5.56 | 24.5 | 9 | 100 | – |
| O=C(Nc1ccc(NCc2ccc(C(F)(F)F)cc2)cc1Cl)c1cc(Cl)ccc1O | 5.84 | 62.7 | 43.8 | – | – |
| CC(C)Nc1ccc(NC(=O)c2cc(Cl)ccc2O)c(Cl)c1 | 6.06 | 11 | 12.5 | 100 | – |
| CC(C)CNc1ccc(NC(=O)c2cc(Cl)ccc2O)c(Cl)c1 | 6.05 | 60 | 67.4 | 100 | – |
| O=C(Nc1ccc(NCc2ccncc2)cc1Cl)c1cc(Cl)ccc1O | 5.58 | 65.3 | 24.6 | 100 | – |
| O=C(Nc1ccc(NCc2cccc(C(F)(F)F)c2)cc1Cl)c1cc(Cl)ccc1O | 6.06 | 13.3 | 15.2 | 100 | – |

| SMILES | pIC50 (Human adenovirus 5 [1]) | CC50 at 48 h [2] [µM] | selectivity ratio at 48 h [3] | inhibition at 10 µM (Human adenovirus 5 [4]) [%] | other results |
| --- | --- | --- | --- | --- | --- |
| O=C(Nc1ccc(NCc2ccc(Cl)cc2)cc1Cl)c1cc(Cl)ccc1O | 5.92 | 59.7 | 49.7 | 100 | – |
| CN1CCC(Oc2ccc(Cl)cc2C(=O)Nc2ccc(NC3CCCC3)cc2Cl)CC1 | – | – | – | 0 | – |
| O=C(Nc1cc(F)cc(C(F)(F)F)c1)c1cc(Cl)ccc1O | 6.74 | – | 667 | – | – |
| O=C(Nc1ccc([N+](=O)[O-])cc1Cl)c1cc(Cl)ccc1O [NICLOSAMIDE] | 6.22 | – | – | 100 | Activity [5]: Non-Toxic; inhibition (INH) (Human adenovirus 5 [6]): >=50%; Activity (Human betaherpesvirus 5): 1.7% |
| O=C(Nc1ccc(NCc2cc(C(F)(F)F)cc(C(F)(F)F)c2)cc1Cl)c1cc(Cl)ccc1O | 5.95 | 92.8 | 82.9 | 100 | – |
| O=C(Nc1ccc(N(CC2CC2)CC2CC2)cc1Cl)c1cc(Cl)ccc1O | 6.21 | 12.8 | 20.7 | 100 | – |
| O=C(Nc1ccc(N(CCCO)CCCO)cc1Cl)c1cc(Cl)ccc1O | – | 114 | – | – | – |
| CC(C)[C@H](NC(=O)c1cc(Cl)ccc1O)C(=O)Nc1ccc(NC2CCCC2)cc1Cl | 5.42 | 111 | 28.9 | – | – |
| CC(=O)Nc1ccc(NC(=O)c2cc(Cl)ccc2O)c(Cl)c1 | – | – | – | 0 | – |
| O=C(Nc1ccc(NCc2ccc(Br)cc2)cc1Cl)c1cc(Cl)ccc1O | 5.74 | 40.9 | 22.2 | 100 | – |
| O=C(Nc1ccc(NCc2ccccc2)cc1Cl)c1cc(Cl)ccc1O | 5.60 | 19.7 | 7.8 | 100 | – |
| O=C(Nc1ccc(NCc2cc(F)cc(Cl)c2)cc1Cl)c1cc(Cl)ccc1O | 5.89 | 11.1 | 8.7 | – | – |
| CCCN(CCC)c1ccc(NC(=O)c2cc(Cl)ccc2O)c(Cl)c1 | 6.17 | 10.7 | 16 | 100 | – |
| O=C(Nc1ccc(NC2CCCCC2)cc1Cl)c1cc(Cl)ccc1O | 5.87 | 68.3 | 51.1 | – | – |
| CCN(CC)c1ccc(NC(=O)c2cc(Cl)ccc2O)c(Cl)c1 | 6.07 | 55.5 | 64.5 | 100 | – |
| CC1(ON(c2ccc(NC(=O)c3cc(Cl)ccc3O)c(Cl)c2)C2(C)CCCC2)CCCC1 | 6.13 | 18 | 24.3 | 100 | – |
| Cc1ccc(O)c(C(=O)Nc2ccc(NC3CCCC3)cc2Cl)c1 | 5.57 | 30.9 | 11.4 | – | – |
| O=C(Nc1ccc(NC2CCCC2)cc1Cl)c1cc(Cl)ccc1O | 6.30 | 92.9 | 186 | 100 | fold change (FC) (Human adenovirus 5 [7]): 17.1; Activity (Human adenovirus 5 [8]): 98.84%; Activity (Human adenovirus 5 [9]): 14.42%; inhibition (INH) (Human adenovirus 5 [6]): >=50%; Activity (Human betaherpesvirus 5): 100% |
| O=C(Nc1ccc(NCc2ccc(F)cc2)cc1Cl)c1cc(Cl)ccc1O | 5.47 | 54.4 | 16 | 100 | – |
| CC(C)[C@H](NC(=O)c1cc(Cl)ccc1O)C(=O)Nc1ccc([N+](=O)[O-])cc1Cl | 6.35 | – | 444 | – | – |
| O=C(Nc1ccc(NCc2cc(Cl)cc(Cl)c2)cc1Cl)c1cc(Cl)ccc1O | 5.84 | 13.3 | 9.3 | 100 | – |
| CC(C)(C)OC(=O)NCCNc1ccc(NC(=O)c2cc(Cl)ccc2O)c(Cl)c1 | 5.56 | 25 | 9 | 100 | – |
| O=C(Nc1ccc(NC2CCCC2)cc1F)c1cc(Cl)ccc1O | 5.98 | 51 | 49.1 | – | – |
| O=C(Nc1ccc(NCc2ccc3cn[nH]c3c2)cc1Cl)c1cc(Cl)ccc1O | 5.33 | 45.3 | 9.7 | – | – |
| O=C(Nc1ccc(NC2CCCC2)c(Cl)c1)c1cc(Cl)ccc1O | 6.08 | 16.9 | 20.1 | 100 | – |
| COc1ccc(CNc2ccc(NC(=O)c3cc(Cl)ccc3O)c(Cl)c2)cc1 | 5.44 | 80.7 | 22.4 | 100 | – |
